Laboratory results published in US20180099931A1 (AbbVie S.à.r.l., priority 2016, published 2018).
Read-outs that look alike come from different tables or passages of the source.

Target: T1, F508delCFTR (Homo sapiens, UniProt P13569, DEL508-508)
T1 construct: expressed in transfected cells; host or cells: CFBE41o- human lung-derived epithelial cells (CFBE4lo-F508delCFTR-HRP), doxycycline-inducible
Test: Cell Surface Expression-Horse Radish Peroxidase (CSE-HRP) Assay;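 on Maximum % activity (with co-corrector): co-corrector and positive control are both the same reference corrector at 2 µM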;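 on Maximum % activity (without co-corrector): percent of the 2 µM on-plate positive control corrector response above DMSO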
Assay type: cell-based
Conditions: for Maximum % activity (with co-corrector) / Emax: maximum at any tested concentration, normalized to on-plate positive control; for Emax: read-out: Maximum % activity (without co-corrector)

[1] = CSE-HRP, test compound without co-corrector, read-out: EC50 (without co-corrector)
[2] = CSE-HRP, with co-corrector (2 μM of 3-[(2R,4R)-4-({[1-(2,2-difluoro-1,3-benzodioxol-5-yl)cyclopropyl]carbonyl}amino)-7-methoxy-3,4-dihydro-2H-chromen-2-yl]benzoic acid), read-out: EC50 (with co-corrector)
[3] = CSE-HRP, with co-corrector (2 μM)
[4] = test compound without co-corrector
[5] = test compound without co-corrector, read-out: EC50 (without co-corrector)
[6] = with co-corrector (2 μM of 3-[(2R,4R)-4-({[1-(2,2-difluoro-1,3-benzodioxol-5-yl)cyclopropyl]carbonyl}amino)-7-methoxy-3,4-dihydro-2H-chromen-2-yl]benzoic acid)
[7] = with co-corrector (2 μM of 3-[(2R,4R)-4-({[1-(2,2-difluoro-1,3-benzodioxol-5-yl)cyclopropyl]carbonyl}amino)-7-methoxy-3,4-dihydro-2H-chromen-2-yl]benzoic acid), read-out: EC50 (with co-corrector)

T1 sequence (P13569 with tags, fused parts or gaps DEL508-508): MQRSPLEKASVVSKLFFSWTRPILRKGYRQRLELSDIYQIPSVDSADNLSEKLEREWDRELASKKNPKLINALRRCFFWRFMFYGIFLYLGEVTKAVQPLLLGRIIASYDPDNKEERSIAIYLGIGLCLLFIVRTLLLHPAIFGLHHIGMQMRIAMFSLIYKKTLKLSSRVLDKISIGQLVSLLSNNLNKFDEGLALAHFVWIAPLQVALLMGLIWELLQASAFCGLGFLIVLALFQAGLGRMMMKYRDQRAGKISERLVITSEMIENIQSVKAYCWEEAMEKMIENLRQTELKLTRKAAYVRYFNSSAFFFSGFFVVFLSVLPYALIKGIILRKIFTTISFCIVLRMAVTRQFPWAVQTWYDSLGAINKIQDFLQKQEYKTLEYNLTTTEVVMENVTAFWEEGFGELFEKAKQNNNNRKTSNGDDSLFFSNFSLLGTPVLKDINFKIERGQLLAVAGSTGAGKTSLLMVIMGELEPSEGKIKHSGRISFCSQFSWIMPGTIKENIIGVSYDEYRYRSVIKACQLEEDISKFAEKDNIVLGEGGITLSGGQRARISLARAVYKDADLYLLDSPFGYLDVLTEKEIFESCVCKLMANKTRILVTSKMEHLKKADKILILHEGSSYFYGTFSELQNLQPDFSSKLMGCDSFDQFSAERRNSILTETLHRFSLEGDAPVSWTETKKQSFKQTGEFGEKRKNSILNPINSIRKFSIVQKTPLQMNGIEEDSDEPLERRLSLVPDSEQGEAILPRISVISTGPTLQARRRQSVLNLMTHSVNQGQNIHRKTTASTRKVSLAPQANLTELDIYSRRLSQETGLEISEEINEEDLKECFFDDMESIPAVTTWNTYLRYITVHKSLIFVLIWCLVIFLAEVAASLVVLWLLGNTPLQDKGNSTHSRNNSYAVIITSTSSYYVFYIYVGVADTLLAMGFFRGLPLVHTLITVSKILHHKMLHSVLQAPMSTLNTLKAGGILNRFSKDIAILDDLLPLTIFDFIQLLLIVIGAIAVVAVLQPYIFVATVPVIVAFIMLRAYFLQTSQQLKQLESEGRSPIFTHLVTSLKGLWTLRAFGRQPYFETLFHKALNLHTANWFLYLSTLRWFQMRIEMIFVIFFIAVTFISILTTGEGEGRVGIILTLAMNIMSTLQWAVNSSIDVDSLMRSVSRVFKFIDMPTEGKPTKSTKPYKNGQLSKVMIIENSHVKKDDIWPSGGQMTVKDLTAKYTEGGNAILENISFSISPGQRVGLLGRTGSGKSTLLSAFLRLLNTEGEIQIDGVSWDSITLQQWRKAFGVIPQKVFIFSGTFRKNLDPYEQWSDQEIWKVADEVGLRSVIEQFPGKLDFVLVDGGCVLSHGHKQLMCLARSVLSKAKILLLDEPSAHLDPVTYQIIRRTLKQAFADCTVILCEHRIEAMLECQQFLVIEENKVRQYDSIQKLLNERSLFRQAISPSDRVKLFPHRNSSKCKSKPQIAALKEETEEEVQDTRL

EC50 [1] [µM]	EC50 [2] [µM]	Maximum % activity (with co-corrector) [3]	Emax (CSE-HRP, without co-corrector) [%]	Emax [4] [%]	EC50 [5] [µM]	Maximum % activity (with co-corrector) [6]	EC50 [7] [µM]	Maximum % activity (with co-corrector) (with co-corrector (2 μM))	Emax (without co-corrector) [%]	SMILES
1 to 10	< 1	+++ (≥350)	> 200	–	–	–	–	–	–	COc1ccc(Cc2ccccc2)cc1CN[C@H]1[C@H](C(C)(C)C)[C@@H](C(=O)O)N(C(=O)C2CCCCC2)[C@H]1c1ccccc1 [II-191]
–	–	–	–	> 200	1 to 10	+++ (≥350)	1 to 10	–	–	COc1ccc(C2(C)CCC2)cc1CN[C@H]1[C@H](C(C)(C)C)[C@@H](C(=O)O)N(C(=O)OC(C)C)[C@H]1c1ccccc1 [II-537]
–	–	–	–	100 to 200	1 to 10	+++ (≥350)	1 to 10	–	–	COc1nc(C(C)(C)C)ccc1CN[C@H]1[C@H](C(C)(C)C)[C@@H](C(=O)O)N(C(=O)C2CCCCC2)[C@H]1c1ccccc1OC(F)F [II-528]
< 1	< 1	+++ (≥350)	> 200	–	–	–	–	–	–	COc1ccc(C2CCCC2)cc1CN[C@H]1[C@H](C(C)(C)OC)[C@@H](C(=O)O)N(C(=O)C2CCCCC2)[C@H]1c1ccccc1 [II-256]
–	–	–	–	–	1 to 10	–	< 1	+++ (≥350)	100 to 200	COc1ccc(C(C)(C)C)cc1CN[C@H]1[C@H](C(C)(C)C)[C@@H](C(=O)O)N(C(=O)C2CCCCC2)[C@H]1c1ccccc1OC(F)F [Example I-229]

Further lines, the molecule ahead of its results:

SMILES	EC50 [1] [µM]	EC50 [2] [µM]	Maximum % activity (with co-corrector) [3]	Emax (CSE-HRP, without co-corrector) [%]	Emax [4] [%]	EC50 [5] [µM]	Maximum % activity (with co-corrector) [6]	EC50 [7] [µM]	Maximum % activity (with co-corrector) (with co-corrector (2 μM))	Emax (without co-corrector) [%]
COc1ccc(C2(C(F)(F)F)CC2)cc1CN[C@H]1[C@H](C(C)(C)C)[C@@H](C(=O)O)N(C(=O)OC(C)C)[C@H]1c1ccccc1 [Example I-141]	–	–	–	–	–	1 to 10	–	< 1	+++ (≥350)	> 200
COc1ccc(C(F)(F)F)cc1CN[C@@H]1[C@@H](C(C)(C)C)[C@H](C(=O)O)N(C(=O)OC(C)C)[C@@H]1c1ccccc1N(C)C (racemic) [II-56]	1 to 10	1 to 10	+++ (≥350)	100 to 200	–	–	–	–	–	–
Cc1cc(C(F)(F)F)cc(N[C@@H]2[C@@H](C(C)(C)C)[C@H](C(=O)NS(=O)(=O)N(C)C)N(C(=O)C3CCCCC3)[C@@H]2c2ccccc2)n1 (racemic) [III-54]	–	–	–	–	< 100	1 to 10	++ (≥150 and <350)	1 to 10	–	–
COc1ccc(C(C)(C)C)cc1CN[C@H]1[C@H](C(C)(C)C)[C@@H](C(=O)O)N(C(=O)CC2(C)CCC(F)(F)C2)[C@H]1c1ccccc1 (some centres unmarked) [II-220]	1 to 10	1 to 10	+++ (≥350)	100 to 200	–	–	–	–	–	–
Cc1cc(C(F)(F)F)cc(N[C@@H]2[C@@H](C(C)(C)C)[C@H](C(=O)NS(=O)(=O)C3(C)CC3)N(C(=O)C3CCCCC3)[C@@H]2c2ccccc2)n1 (racemic) [III-51]	–	–	–	–	< 100	1 to 10	++ (≥150 and <350)	1 to 10	–	–
COc1ncc(C(F)(F)F)cc1CN[C@H]1[C@H](C(C)(C)C)[C@@H](C(=O)O)N(C(=O)[C@@H]2CCCO2)[C@H]1c1cccnc1N(C)C [II-596]	–	–	–	–	< 100	1 to 10	++ (≥150 and <350)	1 to 10	–	–
COc1ccc(C(C)(C)C)cc1CN[C@H]1[C@H](C(C)(C)C)[C@@H](C(=O)O)N(C(=O)c2cn(C)cc(C)c2=O)[C@H]1c1ccccc1 [III-176]	–	–	–	–	< 100	> 10	–	> 10	+ (<150)	–
COc1ccc(C(F)(F)F)cc1CN[C@H]1[C@H](C(C)(C)C)[C@@H](C(=O)O)N(C(=O)OC(C)C)[C@H]1c1ccccc1 [II-553]	–	–	–	–	> 200	1 to 10	+++ (≥350)	1 to 10	–	–
COc1ccc(Cl)cc1CN[C@@H]1[C@@H](C)[C@H](C(=O)O)N(C(=O)N(C(C)C)C(C)C)[C@@H]1c1ccccc1 (racemic) [III-37]	–	–	–	–	< 100	> 10	++ (≥150 and <350)	1 to 10	–	–
